Patent US5409946A, “Isoxazole, isothiazole and pyrazole compounds that enhance cognitive function” (Abbott Laboratories, priority 1993, dated 1995)
Entries after “also recorded” stand apart in the source; their conditions may differ. Like-named read-outs stand apart in the source and are kept apart here.

Legend:
[1] = biological target: neuronal nicotinic receptors; assay: Displacement of [3H]-MCC or [3H]-cytisine from neuronal nicotinic receptors, whole rat brain membranes; assay type: binding
muscarinic receptors = assay type: binding, rat; conditions: Table 2
Method: The potencies of ligand binding at central muscarinic binding sites were determined by analysis of competition with the specific muscarinic receptor radioligand [^3 H]-quinuclidinyl benzilate ([^3 H]-QNB). […] Competition between various concentrations of putative nicotinic ligand compounds and 0.2 nM [^3 H]-QNB was performed at 25° C. in an assay volume of 1 mL. After 75 minutes, the bound radioligand was separated by vacuum filtration on Whatman GF/B glass fiber filters. Non-specific binding was defined as radioactivity remaining in the presence of 10 μM atropine. Competition curves were analyzed for Ki values as described above for binding to the nicotinic receptor.

[2] = system: neuronal nicotinic cholinergic channels in PC12 cells; assay: Cholinergic channel activator action in PC12 cells, whole-cell patch-clamp; assay type: cell-based, rat; conditions: PC12 cells; mean ± S.E.M.
Method: Electrophysiologic recordings were obtained from differentiated (neurite-bearing) cells after 4-7 days exposure to NGF. […] After 20 minutes, differentiating medium was added (DMEM containing 100 ng/ml nerve growth factor, 5% heat-inactivated fetal calf serum and 2.5% heat-inactivated horse serum) and the cells were refed with this medium every 3 days.
The intracellular (recording pipette) solution consisted of 140 mM KCl, 1.0 mM CaCl2, 2.0 mM MgCl2, 11 mM K-EGTA, and 10 mM K-HEPES buffer (7.3 pH, 315 mOsm). Osmolarities were adjusted using dextrose such that the extracellular solution was 10 mOsm hypertonic compared to the intracellular solution. Voltage-gated inward (sodium) and outward (potassium) currents were monitored throughout the experiment to determine establishment and maintenance of the whole-cell recording configuration.

[3] = system: retention of the avoidance response; assay: Inhibitory avoidance test; assay type: in vivo
Text: The inhibitory (or sometimes called passive) avoidance (IA) test is a well-accepted animal model for learning/memory and is widely used to assess the activity of novel cognition enhancers in enhancing cognitive function (Wanibuchi et al., Eur. J. Pharmacol., 1990, 187:479). According to this test, animals are placed in the illuminated (12×14×11 cm) portion of a two-chambered box, from which they enter through a guillotine door to the larger (24×13.5×12 cm) dark compartment of the box. Entry to the dark compartment is accompanied by a mild (0.35 mA), brief (2 seconds) footshock. Initial latencies to cross are recorded, with an imposed 60 second ceiling. Following a 24 hour retention interval, animals are returned to the illuminated chamber, and latency to return to the dark compartment is again recorded, with a ceiling of 180 seconds. No footshock is administered on the test day.
Twelve animals were used in each group.

[4] = system: time spent in the open arms (anxiolytic activity); assay: Mouse elevated plus-maze; assay type: in vivo, CD1 mice
Text: The mouse elevated plus-maze is a commonly-used conflict test that probes anxiolytic activity of test compounds (Lister, Psychopharmacology, 1987, 92 180). It is based on the fact that exposure of mice to an elevated open arm leads to an avoidance response considerably stronger than that evoked by exposure to an enclosed arm.
The apparatus required to perform this test is made of plywood and consists of two open arms (17×8 cm) and two enclosed arms (17×8×15 cm) extending from a central platform (8×8 cm). It is mounted on a plywood base rising 39 cm above the floor. Mice are released on the central platform and the time spent in the open and enclosed arms is recorded during a 5 minute test period.
The compound of Example 2 (0.0108-1.08 μmol/kg, i.p.) was administered to CD1 mice (n=12 per group) 15 minutes before the test.

spike wave discharges = assay: Attenuation of petit mal absence-like spike wave discharges (EEG); assay type: in vivo, male Wistar rats; conditions: for Total spike wave duration: p < 0.05
Method: Animals: Male albino rats of the Wistar strain (CAMM Research) were maintained on a 12:12 hour light-dark cycle and individually housed throughout these experiments. They were fed standard rodent diet with food and water provided ad libitum.
EEG Recordings: To record spike wave discharges, rats were surgically implanted with permanently affixed EEG electrodes over the frontal codex using previously described techniques (Radek, Brain Res., 1993, in press). After at least a ten day recovery from this surgery, EEG recordings were made inside darkened sound attenuating chambers. Rats were allowed to move freely within the chambers and computerized activity monitors recorded animal motion during these studies. Only those rats that express spike wave discharges, as identified from preliminary recordings, were used to test the effects of nicotinic agents.
Drug studies: EEG recordings were obtained from each rat for a period of 20 minutes of total waking immobility immediately after administration of drug, or a drug-free control solution. Immobility was characterized as the absence of infrared beam interruptions from the activity monitor system. Spike wave activity was identified as regular 6-10 Hz complexes with amplitudes of 0.4 to 1.0 mV. The total spindling duration for 20 minutes of waking immobility was calculated by determining the length (in seconds) of each spike wave burst, and adding each of these times together to obtain a total spindle time for the recording session. Each rat was administered the control solution and one or two doses of the test compounds and each dosing was given at least 48 hours after the previous treatment.
The compound of Example 2 was dissolved in saline to the desired concentration.

1-4 Hz slow wave EEG = 1-4 Hz slow wave EEG amplitude; assay type: in vivo, male Wistar rats

Cc1cc([C@@H]2CCCN2C)on1.O=C(O)C(=O)O [Example 2, 3-Methyl-5-(1-methyl-2(S)-pyrrolidinyl)-isoxazole oxalate salt]
Ki ([1]; Table 1, oxalate salt, read-out: Nicotinic Receptor Ki): 0.005 µM | Ki ([1]; Table 2, read-out: Nicotinic Ki): 0.005 µM | Ki (muscarinic receptors): 160 µM | EC50 [2]: 209 ± 76 µM | equally efficacious at fraction of the dose of (-)-nicotine in IA ([3]; dose relative to (-)-nicotine): 1/17 | Inhibitory Avoidance (IA) result ([3]; i.p. 15 min before training, retention at 24 h, p<0.05, oxalate salt): significantly facilitated the retention of the avoidance response; also recorded: significant | Elevated Plus-Maze (EPM) doses with significant effect ([4]; i.p., p<0.05): 0.036 to 1.08 µmol/kg | Elevated Plus-Maze (EPM) result ([4]; i.p., time in open arms, p<0.05, oxalate salt): clear anxiolytic response; also recorded: significant | anxiolytic potency relative to (-)-nicotine ([4]; more potent than (-)-nicotine): at least 10 fold | Total spike wave duration (spike wave discharges; Table 8, 1.9 μmol/kg i.p.): 26.7 ± 9.2 s | Total spike wave duration (spike wave discharges; Table 8, 6.2 μmol/kg i.p.): 33.1 ± 10.2 s | Total spike wave duration (spike wave discharges; Table 9, 10 μmol/kg p.o.): 25.6 ± 7.5 s | Total spike wave duration (spike wave discharges; Table 11, 6.2 μmol/kg i.p.): 8.2 ± 3.8 s | effect on incidence of spike wave discharges (spike wave discharges; i.p., 20 min waking immobility, p<0.05 where significant): significantly lowered the incidence of spike wave discharges | effect on incidence of spike wave discharges (spike wave discharges; oral, 10.0 μmol/kg, p<0.05): significantly lowered the incidence of spike wave discharges | 1-4 Hz amplitude (1-4 Hz slow wave EEG; 1.9 μmol/kg i.p.): 27.3 ± 5.0 μVolts | effect on low frequency (1-4 Hz) EEG slow-wave patterns (1-4 Hz slow wave EEG; i.p.): does not affect those patterns
